Some results are limits rather than exact numbers.

Drawing on US8541588B2, “Sulfonamide derivatives” (Pfizer Limited, priority 2009, dated 2013), this text covers IC50 for 34 compounds.

The test addresses T1, Nav1.7 (or SCN9A) channel; HEK cells stably transfected with hSCN9A (Homo sapiens, UniProt Q15858).
T1 construct: expressed in transfected cells
As to the kind of experiment: Nav1.7 block, PatchXpress 7000 automated whole-cell voltage clamp, estimated IC50 (EIC50). The note with it: estimated IC50; hSCN9A HEK cells, PatchXpress platform; Examples 283-814. The format is cell-based.

T1 sequence (Q15858 whole entry): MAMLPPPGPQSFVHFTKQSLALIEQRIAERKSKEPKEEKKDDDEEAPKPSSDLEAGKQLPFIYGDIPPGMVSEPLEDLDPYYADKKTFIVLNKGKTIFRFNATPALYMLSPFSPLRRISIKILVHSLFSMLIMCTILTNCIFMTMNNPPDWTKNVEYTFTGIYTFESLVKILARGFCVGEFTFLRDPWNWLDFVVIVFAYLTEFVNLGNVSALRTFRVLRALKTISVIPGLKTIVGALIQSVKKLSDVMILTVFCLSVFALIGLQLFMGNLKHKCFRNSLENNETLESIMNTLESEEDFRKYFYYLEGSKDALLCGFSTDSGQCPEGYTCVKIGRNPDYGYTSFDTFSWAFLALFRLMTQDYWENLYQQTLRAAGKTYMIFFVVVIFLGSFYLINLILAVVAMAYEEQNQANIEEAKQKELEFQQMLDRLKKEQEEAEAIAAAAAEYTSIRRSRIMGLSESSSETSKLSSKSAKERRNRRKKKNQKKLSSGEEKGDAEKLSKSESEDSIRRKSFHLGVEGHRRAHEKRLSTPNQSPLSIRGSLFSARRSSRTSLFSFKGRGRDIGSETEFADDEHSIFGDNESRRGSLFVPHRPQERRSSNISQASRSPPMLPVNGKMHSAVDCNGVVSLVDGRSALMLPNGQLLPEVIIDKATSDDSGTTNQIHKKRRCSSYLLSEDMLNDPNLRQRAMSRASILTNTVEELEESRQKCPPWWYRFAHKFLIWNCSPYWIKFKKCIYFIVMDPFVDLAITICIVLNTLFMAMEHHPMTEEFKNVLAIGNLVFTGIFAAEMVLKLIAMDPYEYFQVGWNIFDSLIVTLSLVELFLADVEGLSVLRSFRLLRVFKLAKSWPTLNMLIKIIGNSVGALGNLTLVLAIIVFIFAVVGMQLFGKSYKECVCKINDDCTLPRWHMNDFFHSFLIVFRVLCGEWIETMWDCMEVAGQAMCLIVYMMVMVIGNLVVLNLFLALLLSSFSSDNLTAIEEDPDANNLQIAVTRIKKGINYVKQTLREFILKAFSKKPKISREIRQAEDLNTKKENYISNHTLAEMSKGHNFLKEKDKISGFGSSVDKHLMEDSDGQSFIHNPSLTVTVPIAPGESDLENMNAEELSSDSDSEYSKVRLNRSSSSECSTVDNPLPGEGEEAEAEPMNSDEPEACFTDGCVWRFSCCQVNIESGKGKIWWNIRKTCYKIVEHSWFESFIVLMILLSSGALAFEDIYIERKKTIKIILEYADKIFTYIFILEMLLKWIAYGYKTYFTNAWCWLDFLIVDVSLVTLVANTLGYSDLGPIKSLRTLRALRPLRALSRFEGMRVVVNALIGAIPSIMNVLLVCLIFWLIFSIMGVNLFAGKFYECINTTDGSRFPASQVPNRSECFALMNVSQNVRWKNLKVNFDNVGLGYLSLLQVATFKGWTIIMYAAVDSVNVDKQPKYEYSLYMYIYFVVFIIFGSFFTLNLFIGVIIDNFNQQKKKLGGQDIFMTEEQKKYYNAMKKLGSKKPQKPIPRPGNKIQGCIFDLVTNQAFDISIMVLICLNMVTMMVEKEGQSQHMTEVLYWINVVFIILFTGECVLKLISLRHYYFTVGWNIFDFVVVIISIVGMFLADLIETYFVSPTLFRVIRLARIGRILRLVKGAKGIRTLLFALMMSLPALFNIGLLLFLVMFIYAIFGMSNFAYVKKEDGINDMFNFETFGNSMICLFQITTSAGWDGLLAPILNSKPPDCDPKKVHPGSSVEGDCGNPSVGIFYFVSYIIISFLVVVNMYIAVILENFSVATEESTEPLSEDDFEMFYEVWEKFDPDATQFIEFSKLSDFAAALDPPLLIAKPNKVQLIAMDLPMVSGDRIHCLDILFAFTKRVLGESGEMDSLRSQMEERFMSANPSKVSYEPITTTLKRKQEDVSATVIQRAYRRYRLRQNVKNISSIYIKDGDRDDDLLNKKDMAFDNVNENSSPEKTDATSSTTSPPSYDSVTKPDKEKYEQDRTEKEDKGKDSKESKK

In general, IC50 refers to the concentration that gives 50% inhibition. With `Nc1[nH]ncc1-c1cc(Cl)ccc1Oc1cc(F)c(S(=O)(=O)Nc2ncc(Cl)s2)cc1F` [Example 467, 4-[2-(5-amino-1H-pyrazol-4-yl)-4-chlorophenoxy]-N-(5-chloro-1,3-thiazol-2-yl)-2,5-difluorobenzenesulfonamide], the IC50 was 9.6 nM.

As for `Cn1nccc1-c1cc(C(F)(F)F)ccc1Oc1cc(F)c(S(=O)(=O)Nc2ncns2)cc1F` [Example 468, 2,5-difluoro-4-[2-(1-methyl-1H-pyrazol-5-yl)-4-(trifluoromethyl)phenoxy]-N-1,2,4-thiadiazol-5-ylbenzenesulfonamide], the IC50 was 29 nM.

With `N#Cc1cc(S(=O)(=O)Nc2nccs2)ccc1Oc1ccc(-n2cccn2)cc1` [Example 469, 3-cyano-4-[4-(1H-pyrazol-1-yl)phenoxy]-N-1,3-thiazol-2-ylbenzenesulfonamide], the 50% inhibitory concentration (IC50) is 3300 nM.

Take `Cc1cn(C)nc1-c1ccc(Oc2ccc(S(=O)(=O)Nc3nccs3)cc2C#N)cc1` [Example 470, 3-cyano-4-[4-(1,4-dimethyl-1H-pyrazol-3-yl)phenoxy]-N-1,3-thiazol-2-ylbenzenesulfonamide]: the IC50 is 3400 nM.

For `Cc1cn(C(F)F)nc1-c1ccc(Oc2ccc(S(=O)(=O)Nc3nccs3)cc2C#N)cc1` [Example 471, 3-cyano-4-{4-[1-(difluoromethyl)-4-methyl-1H-pyrazol-3-yl]phenoxy}-N-1,3-thiazol-2-ylbenzenesulfonamide], the IC50 is 2700 nM.

`Cn1nc(C(F)(F)F)cc1-c1cc(F)c(F)c(Oc2ccc(S(=O)(=O)Nc3nccs3)cc2C#N)c1` [Example 472, 3-cyano-4-{2,3-difluoro-5-[1-methyl-3-(trifluoromethyl)-1H-pyrazol-5-yl]phenoxy}-N-1,3-thiazol-2-ylbenzenesulfonamide]: the IC50 was 970 nM.

With `CCn1nc(C(F)(F)F)cc1-c1ccc(Oc2ccc(S(=O)(=O)Nc3ncns3)cc2Cl)cc1` [Example 473, 3-chloro-4-{4-[1-ethyl-3-(trifluoromethyl)-1H-pyrazol-5-yl]phenoxy}-N-1,2,4-thiadiazol-5-ylbenzenesulfonamide], the 50% inhibitory concentration (IC50) was 72 nM.

For `CC(C)(C)n1nccc1-c1cc(Cl)ccc1Oc1ccc(S(=O)(=O)Nc2ncns2)cc1Cl` [Example 474, 4-[2-(1-tert-butyl-1H-pyrazol-5-yl)-4-chlorophenoxy]-3-chloro-N-1,2,4-thiadiazol-5-ylbenzenesulfonamide], the IC50 was 44 nM.

For the compound `O=S(=O)(Nc1ncns1)c1ccc(Oc2ccc(Cl)cc2-c2ccn[nH]2)c(Cl)c1` [Example 475, 3-chloro-4-[4-chloro-2-(1H-pyrazol-5-yl)phenoxy]-N-1,2,4-thiadiazol-5-ylbenzenesulfonamide], the IC50 is 7.5 nM.

Consider `CC(C)(C)n1nccc1-c1cc(F)ccc1Oc1ccc(S(=O)(=O)Nc2ncns2)cc1Cl` [Example 476, 4-[2-(1-tert-butyl-1H-pyrazol-5-yl)-4-fluorophenoxy]-3-chloro-N-1,2,4-thiadiazol-5-ylbenzenesulfonamide], for which the IC50 was 170 nM.

With `O=S(=O)(Nc1ncns1)c1ccc(Oc2ccc(Cl)cc2C2CCNCC2)c(Cl)c1` [Example 477, 3-chloro-4-(4-chloro-2-piperidin-4-ylphenoxy)-N-1,2,4-thiadiazol-5-ylbenzenesulfonamide], the IC50 was 16 nM.

As for `O=S(=O)(Nc1ncns1)c1ccc(Oc2ccc(F)cc2-c2ccn[nH]2)c(Cl)c1` [Example 478, 3-chloro-4-[4-fluoro-2-(1H-pyrazol-5-yl)phenoxy]-N-1,2,4-thiadiazol-5-ylbenzenesulfonamide], the IC50 was 44 nM.

As for `CCn1nc(C(F)(F)F)cc1-c1cccc(Oc2ccc(S(=O)(=O)Nc3ncc(F)s3)cc2C#N)c1` [Example 479, 3-cyano-4-{3-[1-ethyl-3-(trifluoromethyl)-1H-pyrazol-5-yl]phenoxy}-N-(5-fluoro-1,3-thiazol-2-yl)benzenesulfonamide], the IC50 was 230 nM.

In the case of `N#Cc1cc(S(=O)(=O)Nc2nccs2)ccc1Oc1ccc(-c2cc(C(F)(F)F)n(CCCF)n2)cc1F` [Example 480, 3-cyano-4-{2-fluoro-4-[1-(3-fluoropropyl)-5-(trifluoromethyl)-1H-pyrazol-3-yl]phenoxy}-N-1,3-thiazol-2-ylbenzenesulfonamide], the IC50 was greater than 1000 nM.

With `Cc1cc(-c2cccc(Oc3ccc(S(=O)(=O)Nc4nccs4)cc3C#N)c2)n(CCN(C)C)n1` [Example 481, 3-cyano-4-(3-{1-[2-(dimethylamino)ethyl]-3-methyl-1H-pyrazol-5-yl}phenoxy)-N-1,3-thiazol-2-ylbenzenesulfonamide], the IC50 was 1700 nM.

For the compound `N#Cc1cc(S(=O)(=O)Nc2nccs2)ccc1Oc1ccc(-c2cn(CC(F)(F)F)nc2N)cc1` [Example 482, 4-{4-[3-amino-1-(2,2,2-trifluoroethyl)-1H-pyrazol-4-yl]phenoxy}-3-cyano-N-1,3-thiazol-2-ylbenzenesulfonamide], the IC50 is greater than 1000 nM.

In the case of `Cn1cc(-c2ccc(Oc3ccc(S(=O)(=O)Nc4nccs4)cc3C#N)cc2)c(N)n1` [Example 483, 4-[4-(3-amino-1-methyl-1H-pyrazol-4-yl)phenoxy]-3-cyano-N-1,3-thiazol-2-ylbenzenesulfonamide], the IC50 is greater than 1000 nM.

As for `CC1CN(c2ccc(Oc3ccc(S(=O)(=O)Nc4nccs4)cc3C#N)cc2)C(=O)N1` (stereo not shown) [Example 484, 3-cyano-4-[4-(4-methyl-2-oxoimidazolidin-1-yl)phenoxy]-N-1,3-thiazol-2-ylbenzenesulfonamide], the IC50 was greater than 1000 nM.

`CC(C)C1CN(c2ccc(Oc3ccc(S(=O)(=O)Nc4nccs4)cc3C#N)cc2)C(=O)N1` (stereo not shown) [Example 485, 3-cyano-4-[4-(4-isopropyl-2-oxoimidazolidin-1-yl)phenoxy]-N-1,3-thiazol-2-ylbenzenesulfonamide]: the IC50 was greater than 1000 nM.

For the compound `N#Cc1cc(S(=O)(=O)Nc2nccs2)ccc1Oc1ccc(N2CCNC2=O)cc1` [Example 486, 3-cyano-4-[4-(2-oxoimidazolidin-1-yl)phenoxy]-N-1,3-thiazol-2-ylbenzenesulfonamide], the half-maximal inhibitory concentration (IC50) was greater than 1000 nM.

Turning to `CN1CCN(c2ccc(Oc3ccc(S(=O)(=O)Nc4nccs4)cc3C#N)cc2)C1=O` [Example 487, 3-cyano-4-[4-(3-methyl-2-oxoimidazolidin-1-yl)phenoxy]-N-1,3-thiazol-2-ylbenzenesulfonamide], the IC50 is greater than 1000 nM.

Take `N#Cc1cc(S(=O)(=O)Nc2nccs2)ccc1Oc1ccc(N2CCCC2=O)cc1` [Example 488, 3-cyano-4-[4-(2-oxopyrrolidin-1-yl)phenoxy]-N-1,3-thiazol-2-ylbenzenesulfonamide]: the IC50 was greater than 1000 nM.

With `CCc1cc(-n2cccn2)ccc1Oc1ccc(S(=O)(=O)Nc2nccs2)cc1C#N` [Example 489, 3-cyano-4-[2-ethyl-4-(1H-pyrazol-1-yl)phenoxy]-N-1,3-thiazol-2-ylbenzenesulfonamide], the IC50 was 1200 nM.

On to `CCc1cc(-n2ccc(C(F)(F)F)n2)ccc1Oc1ccc(S(=O)(=O)Nc2nccs2)cc1C#N` [Example 490, 3-cyano-4-{2-ethyl-4-[3-(trifluoromethyl)-1H-pyrazol-1-yl]phenoxy}-N-1,3-thiazol-2-ylbenzenesulfonamide], for which the IC50 is 660 nM.

Take `N#Cc1cc(S(=O)(=O)Nc2nccs2)ccc1Oc1ccc(-n2cccn2)cc1C(F)(F)F` [Example 491, 3-cyano-4-[4-(1H-pyrazol-1-yl)-2-(trifluoromethyl)phenoxy]-N-1,3-thiazol-2-ylbenzenesulfonamide]: the IC50 is greater than 1000 nM.

Turning to `N#Cc1cc(S(=O)(=O)Nc2nccs2)ccc1Oc1ccc(-n2ccc(C(F)(F)F)n2)cc1C(F)(F)F` [Example 492, 3-cyano-N-1,3-thiazol-2-yl-4-{2-(trifluoromethyl)-4-[3-(trifluoromethyl)-1H-pyrazol-1-yl]phenoxy}benzenesulfonamide], the IC50 was 1500 nM.

On to `N#Cc1cc(S(=O)(=O)Nc2nccs2)ccc1Oc1ccc(Cl)cc1CN1CCOCC1` [Example 493, 4-[4-chloro-2-(morpholin-4-ylmethyl)phenoxy]-3-cyano-N-1,3-thiazol-2-ylbenzenesulfonamide], for which the IC50 is 580 nM.

As for `Cn1ccc(-c2ccc(F)cc2Oc2ccc(S(=O)(=O)Nc3nccs3)cc2C#N)n1` [Example 494, 3-cyano-4-[5-fluoro-2-(1-methyl-1H-pyrazol-3-yl)phenoxy]-N-1,3-thiazol-2-ylbenzenesulfonamide], the IC50 was 2500 nM.

`COC(=O)c1cc(Oc2ccc(S(=O)(=O)Nc3nccs3)cc2C#N)ccc1-n1cc(Cl)cn1` [Example 495, methyl 2-(4-chloro-1H-pyrazol-1-yl)-5-{2-cyano-4-[(1,3-thiazol-2-ylamino)sulfonyl]phenoxy}benzoate]: the IC50 is greater than 1000 nM.

Turning to `COCc1cc(Oc2ccc(S(=O)(=O)Nc3nccs3)cc2C#N)ccc1-n1cc(Cl)cn1` [Example 496, 4-[4-(4-chloro-1H-pyrazol-1-yl)-3-(methoxymethyl)phenoxy]-3-cyano-N-1,3-thiazol-2-ylbenzenesulfonamide], the IC50 was 3800 nM.

For the compound `N#Cc1cc(S(=O)(=O)Nc2nccs2)ccc1Oc1ccc(-n2cc(Cl)cn2)c(C(=O)O)c1` [Example 497, 2-(4-chloro-1H-pyrazol-1-yl)-5-{2-cyano-4-[(1,3-thiazol-2-ylamino)sulfonyl]phenoxy}benzoic acid], the IC50 was greater than 1000 nM.

In the case of `N#Cc1cc(S(=O)(=O)Nc2ncns2)ccc1Oc1ccc(F)cc1-c1ccn[nH]1` [Example 499, 3-cyano-4-[4-fluoro-2-(1H-pyrazol-5-yl)phenoxy]-N-1,2,4-thiadiazol-5-ylbenzenesulfonamide], the IC50 was 190 nM.

For `CCn1nc(C(F)(F)F)cc1-c1ccc(Oc2ccc(S(=O)(=O)Nc3ncns3)cc2C#N)cc1` [Example 500, 3-cyano-4-{4-[1-ethyl-3-(trifluoromethyl)-1H-pyrazol-5-yl]phenoxy}-N-1,2,4-thiadiazol-5-ylbenzenesulfonamide], the IC50 was 88 nM.

On to `Cn1nccc1-c1cc(Br)ccc1Oc1ccc(S(=O)(=O)Nc2ncns2)cc1C#N` [Example 501, 4-[4-bromo-2-(1-methyl-1H-pyrazol-5-yl)phenoxy]-3-cyano-N-1,2,4-thiadiazol-5-ylbenzenesulfonamide], for which the IC50 was 40 nM.
